Assay results: publication PMC11546786, “Designing Analogs of SAAP-148 with Enhanced Antimicrobial and Anti-LPS Activities” (International Journal of Molecular Sciences, 2024)
Ends that are not written are not given here.

Tests used:
[1] = CD spectra, secondary structure by BeStSel; assay type: physicochemical; settings: 30 μM SDS as printed, 100 μM peptide, 25 °C
Summary of the method: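 Far-UV CD spectra (190–250 nm) of peptides at 100 μM in SDS, 0.1 cm cells, 25 °C under nitrogen. Secondary-structure content derived from spectra by BeStSel deconvolution.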

[2] = tested on: Pseudomonas aeruginosa (1.2421); assay type: cell-based
Source text: (§1) The LL-37, SAAP-148 and its analogues peptides were synthesized according to the standard Fmoc procedure. The Fmoc-protected resin and monomers are first treated with a basic solvent (piperidine) to remove the amino protecting groups. The carboxyl group of the next amino acid is activated by an activator. The activated monomer reacts with the free amino group to form a peptide bond. These two steps are repeated in a cycle until the synthesis is complete. After synthesis, the peptide is eluted from the column and purified by reverse-phase semipreparative high-performance liquid chromatography as detailed in Table 1. The peptides were dissolved in PBS to create a 1000 μmol/L stock solution for subsequent use. The purity of the synthetic peptide exceeded 95%. Blood samples from healthy donors were obtained from the Fifth Medical Center of Chinese PLA General Hospital (Beijing, China). Human normal lung epithelial cells (BEAS-2B) and mouse mononuclear macrophages cells (RAW 264.7) were sourced from Beyotime Biotechnology (Beijing, China), along with the Enhanced Cell Counting Kit-8 (CCK-8) and nitric oxide detection kit. RPMI-1640 and DMEM were procured from Merck (Darmstadt, Germany), while FBS was obtained from ExCell Bio (Shanghai, China). LPS-B5 (from E. coli 055:B5) was procured from Invivogen (Toulouse, France). Five bacterial strains, including Escherichia coli (1.8732), Pseudomonas aeruginosa (1.2421), Klebsiella pneumonia (1.1736) as Gram-negative bacteria, and Staphylococcus aureus (1.8721) and Staphylococcus epidermidis (1.4260) as Gram-positive bacteria, were procured from the China General Microbiological Culture Collection Centre (CGMCC) (Beijing, China).
(§2) The antibacterial activities of the peptides against […] were evaluated using a modified version of the Clinical Laboratory and Standards Institute (CLSI) broth microdilution method, as previously described. Briefly, the bacteria were cultured in liquid LB medium (comprising 10 g/L tryptone, 5 g/L yeast extract, and 10 g/L NaCl) at 37 °C until reaching mid-log phase. Subsequently, the bacterial concentration was adjusted to 1 × 10^6 colony-forming units (CFU)/mL. The peptides were then diluted serially with phosphate-buffered saline (PBS), followed by the addition of 50 μL of the diluted peptides to 50 μL of the bacterial suspension in a 96-well plate (Corning Inc., Lowell, MA, USA). After incubating at 37 °C for 18 to 20 h, the absorbance of each well was measured using a multi-well microplate reader (SpectraMax M5; Molecular Devices, Sunnyvale, CA, USA) at 600 nm.

[3] = tested on: Staphylococcus epidermidis (1.4260); assay type: cell-based
Source text: as §1, §2

[4] = tested on: Staphylococcus aureus (1.8721); assay type: cell-based
Source text: as §1, §2

[5] = tested on: human erythrocytes; test: Haemolytic activity; assay type: cell-based
Protocol: The haemolytic activity of the peptides was evaluated using a standard procedure with minor adjustments. Fresh human erythrocytes were washed thrice and subsequently resuspended at 1.25% haematocrit in PBS. Forty microlitres PBS-diluted peptide solution was added to a 96-well plate (Corning Inc., Lowell, MA, USA), and 160 μL of erythrocytes was added. After incubation at 37 °C for 30 min, the samples were centrifuged, and the absorbance of the supernatant was measured at 450 nm using a multi-well microplate reader (SpectraMax M5; Molecular Devices, Sunnyvale, CA, USA) and compared with the 100% haemolysis caused by 0.1% Triton X-100. The percentage of haemolysis was calculated according to the equation: Haemolysis%=Asample−Ablank/Atriton−Ablank×100

[6] = tested on: E. coli; test: Membrane damage, PI staining and flow cytometry; assay type: cell-based, Escherichia coli; settings: 6.25 μM peptide, 30 min
Protocol: Propidium iodide (PI) was utilized as a marker for assessing the structural integrity of cell membranes and the occurrence of cell death. The impact of peptides on BEAS-2B cells, E. coli, and S. aureus was investigated by treating the cells with peptides followed by PI staining and flow cytometry (FACS) analysis to evaluate peptide-induced membrane damage. Table 5 presents the results of PI staining in BEAS-2B cells (1 × 10^6) following treatment with peptides at a concentration of 6.25 μM. […] FACS analysis at a peptide concentration of 6.25 μM was employed to determine the membrane damage caused by peptides in E. coli and S. aureus cells (Table 5).
Peptide-induced membrane damage was evaluated by quantifying the influx of propidium iodide (PI). BEAS-2B cells (1 × 10^6 cells in 50 μL) were exposed to a final concentration of 6.25 μM peptide and incubated at 37 °C for 30 min, followed by PBS washing and re-suspension in PI solution (dissolved in PBS) at a final concentration of 2 μg/mL. Bacteria were cultured to mid-log phase at 37 °C, then diluted to an OD600 of 0.5 in phosphate-buffered saline (PBS). […] The bacteria were harvested and re-suspended in PI solution, with fluorescence signal analysis conducted using flow cytometry (Cytomics FC 500, Beckman Coulter, Indianapolis, IN, USA).

Substance: LKRVWKRVFKLKKRYWRQLKKPVR-NH2 [SAAP-7]
- Others [1]: 3.4%
- Turn [1]: 0%
- α-Helix [1]: 48.3%
- β-Antiparallel [1]: 48.3%
- β-Parallel [1]: 0%
- MIC P. aeruginosa [2]: 3.13 µM
- MIC S. epidermidis [3]: 12.50 µM
- MIC S. aureus [4]: 100.00 µM
- fold increase of MHC over that of SAAP-148 [5]: 133.33 fold
- percentage of PI-positive cells, E. coli [6]: 34.9%
